Values quoted from earlier work as cited in patent publication US20060110374A1, “Method to accelerate stem cell recruitment and homing” (priority 2004, published 2006).

What was measured:
[1] = patients, intra-coronary injection followed by 2 weeks of subcutaneous administration
[2] = tested on: EPCs
[3] = tested on: EPCs; remark: listed apart in the source

GM-CSF: granulocyte macrophage colony stimulating factor
coronary collateral flow [1]: significant increase | numbers of EPCs ([2]; mice and rabbits): Increased numbers | neovascularization with bone marrow-derived cells ([2]; mice, corneal neovascularization model): enhanced neovascularization

VEGF
time to rise of EPC levels in the bloodstream ([3]; after administration): ≤ 24 h | mobilization of EPCs into the peripheral circulation ([3]; animal models, exogenous administration): promotes rapid mobilization
